PMC10096449, “Anti-SARS-CoV-2 Activity and Cytotoxicity of Amaryllidaceae Alkaloids from Hymenocallis littoralis” (Molecules, 2023)
Where two headings read alike, the source gives them in different places.

Assays:
SARS-CoV-2 [1] = experiment: microbe, parasite or virus in culture; assay type: cell-based, SARS-CoV-2 isolate BetaCov/Belgium/GHB-03021/2020; conditions: for EC50: read-out: EC50 (anti-SARS-CoV-2 activity); for IC50: Severe acute respiratory syndrome coronavirus 2
in vitro = conditions: African green monkey
Vero-E6 cells = conditions: for CC50: single experiment (duplicate experiments listed)
HEK293T = test system: HEK293T; parameters: method as in Ren et al. [33]; conditions: ref Ren et al. [33]; cited from earlier work
SARS-CoV-2 [2] = test system: SARS-CoV-2; parameters: method as in Ren et al. [33]; conditions: in the Vero-E6 cell; ref Ren et al. [33]; read-out: EC50 (anti-SARS-CoV-2 activity); cited from earlier work
SARS-CoV-2 [3] = test system: SARS-CoV-2; parameters: method as in Jin et al. [32]; conditions: in Vero cells; ref Jin et al. [32]; read-out: EC50 (anti-SARS-CoV-2 activity); cited from earlier work
SARS-CoV-2 [4] = test system: SARS-CoV-2; parameters: method as in Zhang et al. [31]; conditions: RT-PCR read-out after 18–24 h; ref Zhang et al. [31]; read-out: EC50 (anti-SARS-CoV-2 activity); cited from earlier work
Vero-E6 = test system: Vero-E6; parameters: method as in Ren et al. [33]; conditions: ref Ren et al. [33]; cited from earlier work
[5] = parameters: method as in Zhang et al. [31]; conditions: ref Zhang et al. [31]; cited from earlier work
HEK293 = test system: HEK293; parameters: method as in Jin et al. [32]; conditions: on HEK293; ref Jin et al. [32]; cited from earlier work
Huh-7 = test system: Huh-7; parameters: method as in Ren et al. [33]; conditions: ref Ren et al. [33]; cited from earlier work
[6] = Severe acute respiratory syndrome coronavirus 2, 96 h
[7] = CC50 (cytotoxicity on Vero-E6 cells), MTS-assay, absence of virus
[8] = CC50 (µM), single experiment (duplicate experiments listed), Vero-E6 cells
[9] = av. CC50 (µM), average of two experiments, Vero-E6 cells

| SMILES | antiviral activity against SARS-CoV-2 (in words) (SARS-CoV-2 [1]) | EC50 (SARS-CoV-2 [1]; [6]) [µM] | IC50 (SARS-CoV-2 [1]; read-out: IC50) [µM] | IC50 (SARS-CoV-2 [1]; read-out: av. IC50) [µM] | CC50 (in vitro; [7]) [µM] | CC50 (in vitro; [8]) [µM] | CC50 (in vitro; [9]) [µM] | further results |
| --- | --- | --- | --- | --- | --- | --- | --- | --- |
| COc1cc2c(cc1O)[C@@H]1[C@H](O)[C@H](O)C=C3CCN(C2)[C@H]31 (racemic) [Compounds 2 and 3, (±)-2-epi-pseudolycorine] | loss of the antiviral activity | > 100 | > 100 | > 100 | > 100 | > 100 | > 100 |  |
| COc1cc2c(cc1O)C1C(O)C(O)C=C3CCN(C2)C31 (single isomer, unassigned; (+)) [Compound 3, (+)-2-epi-pseudolycorine] | lacked antiviral activity |  |  |  |  |  |  | cytotoxicity on Vero-E6 cells (in words) (Vero-E6 cells): lacked antiviral activity, as well as cytotoxicity |
| Oc1ccc2c3c1OC1CC(O)CCC31CCNC2 (stereo not drawn) [Compound 1, O-demethyl-norlycoramine] |  | 45 | 54 | 45.8 | > 100 | > 100 | > 100 |  |
| COc1cc2c(cc1O)[C@@H]1[C@H](O)[C@H](O)C=C3CCN(C2)[C@H]31 [Compound 2, (−)-2-epi-pseudolycorine] | lacked antiviral activity |  |  |  |  |  |  | cytotoxicity on Vero-E6 cells (in words) (Vero-E6 cells): lacked antiviral activity, as well as cytotoxicity |
| COc1cc2c(c(O)c1OC)[C@]13CC[C@H](OC)C[C@H]1N(CC3)[C@@H]2O [Compound 4, 6α-hydroxyhippeastidine] |  | 44 |  |  | > 100 |  |  |  |
| COc1cc2c(c(O)c1OC)[C@]13CC[C@H](OC)C[C@H]1N(CC3)[C@H]2O [Compound 5, 6β-hydroxyhippeastidine] |  | 44 |  |  | > 100 |  |  |  |
| O[C@H]1[C@H]2c3cc4c(cc3CN3CCC(=C[C@@H]1O)[C@H]23)OCO4 [Compound 6, lycorine] | lacked selective antiviral activity | > 100 | > 100 | > 100 | 1.2 | 1.28 | 1.21 | CC50 (HEK293T): 1040 ± 73.4 nM; EC50 (SARS-CoV-2 [2]): 439 ± 122 nM; EC50 (SARS-CoV-2 [3]): 878 ± 22 nM; EC50 (SARS-CoV-2 [4]): 180 nM; CC50 (Vero-E6): > 1 mM; CC50 [5]: > 40 µM; CC50 (Vero-E6 cells): 1140 nM; CC50 (HEK293): > 10 µM; CC50 (Huh-7): 834 ± 63 nM |
| O[C@H]1[C@H]2c3cc4c(cc3CN3CCC(=C[C@H]1O)[C@H]23)OCO4 [Compound 7, 2-epi-lycorine] |  | 54 | 69.3 | 54.2 | > 100 | > 100 | > 100 |  |
| O[C@H]1[C@H]2c3cc4c(cc3CN3CCC(C[C@H]1O)[C@H]23)OCO4 (stereo partly drawn) [Compound 8, zephyranthine] |  | 40 to 77 | 37.1 | 39.6 | > 100 | > 100 | > 100 | EC50 (SARS-CoV-2 [1]): 39 µM |
| [O-]c1cc2c3c(c1)c1cc4c(cc1c[n+]3CC2)OCO4 [Compound 9, ungeremine] | lacked antiviral activity | > 100 | > 100 | > 100 | > 100 | > 100 | > 100 | cytotoxicity on Vero-E6 cells (in words) (Vero-E6 cells): lacked antiviral activity, as well as cytotoxicity; cytotoxicity on Vero-E6 cells (in words) (Vero-E6 cells; listed as ungeremine): eliminated cytotoxicity on the Vero-E6 cell line; antiviral activity against SARS-CoV-2 (in words) (SARS-CoV-2 [1]; listed as ungeremine): did not improve its anti-SARS-CoV-2 potency |
| O=C1N[C@H]2[C@H](O)[C@H](O)[C@@H](O)[C@H](O)[C@@H]2c2cc3c(c(O)c21)OCO3 [Compound 10, pancratistatin] | lacked selective antiviral activity |  | > 100 | > 100 | 0.13 | 0.14 |  | CC50 (Vero-E6 cells): 122 nM |
| COc1cc2c(cc1O)[C@@H](OC)O[C@@H]1CC=C3CCN(C)[C@H]3[C@H]21 [Compound 11, 9-O-demethyl-7-O-methyllycorenine] |  | 40 to 77 | 99.4 | 77.2 | > 100 | > 100 | > 100 |  |
